Entries after “also recorded” stand apart in the source; their conditions may differ.
Columns and labels:
Format in all cases: cell-based
PPARγ [1] = biological target: T1, PPARγ (Homo sapiens, UniProt P37231); assay: HGELN-PPARγ stable reporter cell luciferase assay; details: HGELN-PPARγ cells; for activation of PPARγ (luciferase): relative to 100 nM rosiglitazone
T1 sequence (P37231 238-505 limits assumed): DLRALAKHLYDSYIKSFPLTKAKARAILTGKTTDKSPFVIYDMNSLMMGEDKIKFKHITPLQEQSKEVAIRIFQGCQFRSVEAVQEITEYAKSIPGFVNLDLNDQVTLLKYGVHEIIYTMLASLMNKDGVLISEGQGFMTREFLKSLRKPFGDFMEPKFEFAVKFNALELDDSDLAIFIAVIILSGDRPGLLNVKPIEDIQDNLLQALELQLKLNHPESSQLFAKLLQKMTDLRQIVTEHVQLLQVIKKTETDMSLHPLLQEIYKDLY
Description: (§1) Reporter cell lines and stable gene expression assay. […] Briefly, reporter cells were seeded at a density of 20,000 cells/well in 96-well white opaque tissue culture plates and maintained in phenol-red–free Dulbecco’s modiﬁed Eagle’s medium (DMEM) supplemented with 5% dextran-coated, charcoal-treated fetal calf serum. Twenty-four hours later, culture medium was replaced with DMEM containing tested compounds. We performed assays in the absence of serum to avoid ligand capture by serum proteins. Sixteen hours after exposure, we replaced media with media containing 0.3 mM luciferin. Luminescence was measured in intact living cells for 2 sec in a Microbeta Wallac luminometer (PerkinElmer).

ERα = biological target: T2, ERα (Homo sapiens, UniProt P03372); assay: HGELN-ERα stable reporter cell luciferase assay; details: for ranking order of estrogenic potency, ERα: HELN-ERα cell line; for agonistic activity toward ERα (luciferase): HGELN-ERα cells, relative to 10 nM E2; for ERα versus ERβ selectivity: HGELN-ERα vs HGELN-ERβ cells
T2 construct: expressed in transfected cells; host or cells: HGELN (HeLa-derived) cells, stably transfected
T2 sequence (P03372 1-595): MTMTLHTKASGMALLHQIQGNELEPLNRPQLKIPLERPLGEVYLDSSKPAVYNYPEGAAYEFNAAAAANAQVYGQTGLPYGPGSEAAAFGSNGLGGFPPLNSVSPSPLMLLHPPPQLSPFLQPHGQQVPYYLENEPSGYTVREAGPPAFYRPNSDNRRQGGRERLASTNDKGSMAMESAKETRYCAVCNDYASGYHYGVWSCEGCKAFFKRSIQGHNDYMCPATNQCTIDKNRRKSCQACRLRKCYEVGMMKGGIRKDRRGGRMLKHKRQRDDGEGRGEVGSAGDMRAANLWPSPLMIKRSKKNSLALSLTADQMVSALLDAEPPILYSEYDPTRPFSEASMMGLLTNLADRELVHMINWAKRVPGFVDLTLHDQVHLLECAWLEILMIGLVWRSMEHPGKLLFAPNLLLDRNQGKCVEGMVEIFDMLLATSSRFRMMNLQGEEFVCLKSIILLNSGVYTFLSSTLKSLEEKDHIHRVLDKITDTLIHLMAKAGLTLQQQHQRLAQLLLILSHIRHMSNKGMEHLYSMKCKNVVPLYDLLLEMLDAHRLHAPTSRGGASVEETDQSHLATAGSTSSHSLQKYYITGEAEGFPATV
Description: as §1

ERβ = biological target: T3, ERβ (Homo sapiens, UniProt Q92731); assay: HGELN-ERβ stable reporter cell luciferase assay; details: for ranking order of estrogenic potency, ERβ: HELN-ERβ cell line; for agonistic activity toward ERβ (luciferase): HGELN-ERβ cells, relative to 10 nM E2
T3 construct: expressed in transfected cells; host or cells: HGELN (HeLa-derived) cells, stably transfected
Description: as §1

3T3L1 preadipocytes = assay: 3T3L1 preadipocyte differentiation (Oil Red O staining); details: for induction of adipogenesis (Oil Red O staining): 8-day treatment with 10 μg/mL insulin and ligand, TCBPA and TBBPA at 10 μM
Description: NIH3T3-L1 differentiation. Two-day postconfluent 3T3L1 preadipocytes (a gift from L. Fajas; Institut de Génétique Moléculaire, Montpellier, France) were induced to differentiate by 2-day treatment with a differentiation mixture (10 μg/mL insulin, 1 μM dexamethasone, 0.5 mM isobutylmethylxanthine) followed by 8-day treatment with 10 μg/mL insulin and PPARγ ligands. The medium was replaced every 48 hr. After differentiation, cells were stained with Oil Red O for morphological analyses, or RNA was extracted from the cells using the RNeasy RNA isolation kit (Qiagen, Courtaboeuf, France). For RNA extractions, four independent cultures were performed per condition. Reverse transcription was performed with random hexamers on 1 μg total RNA using SuperScript II reverse transcriptase (Invitrogen), and the reaction was diluted 100 times for amplification. Real-time polymerase chain reaction (PCR) quantification was then performed using SYBR Green technology (LightCycler; Roche Diagnostics, Meylan, France). Results were normalized to two housekeeping genes (18S and 36B4) and quantified using qBase (Roche Diagnostics).
Two-day postconfluent 3T3L1 cells were treated for 8 days with 10 μg/mL insulin with vehicle (0.1% DMSO) or the ligands as indicated. Rosi, rosiglitazone. (A) Entire wells imaged after Oil Red O staining. (B) Quantitative real-time PCR of PPARγ and adipocyte-specific fatty acid–binding protein AP2 expression levels in postconfluent 3T3-L1 cells treated with the ligands for 24 hr. Data were normalized to 18S or 36B4 controls and plotted as average fold induction ± SE (n = 3 per treatment).

[2] = system: PPARγ target genes (AP2, PPARγ) in 3T3-L1 cells; assay: Real-time PCR of PPARγ target genes in 3T3-L1 cells
Description: Two-day postconfluent 3T3L1 preadipocytes (a gift from L. Fajas; Institut de Génétique Moléculaire, Montpellier, France) were induced to differentiate by 2-day treatment with a differentiation mixture (10 μg/mL insulin, 1 μM dexamethasone, 0.5 mM isobutylmethylxanthine) followed by 8-day treatment with 10 μg/mL insulin and PPARγ ligands. […] After differentiation, cells were stained with Oil Red O for morphological analyses, or RNA was extracted from the cells using the RNeasy RNA isolation kit (Qiagen, Courtaboeuf, France). […] Reverse transcription was performed with random hexamers on 1 μg total RNA using SuperScript II reverse transcriptase (Invitrogen), and the reaction was diluted 100 times for amplification. Real-time polymerase chain reaction (PCR) quantification was then performed using SYBR Green technology (LightCycler; Roche Diagnostics, Meylan, France). Results were normalized to two housekeeping genes (18S and 36B4) and quantified using qBase (Roche Diagnostics).
Two-day postconfluent 3T3L1 cells were treated for 8 days with 10 μg/mL insulin with vehicle (0.1% DMSO) or the ligands as indicated. […] (B) Quantitative real-time PCR of PPARγ and adipocyte-specific fatty acid–binding protein AP2 expression levels in postconfluent 3T3-L1 cells treated with the ligands for 24 hr.

zebrafish PPARγ = assay: Transient transactivation assay in HeLa cells, GAL4-zebrafish PPARγ LBD; details: 10 μM TBBPA, TCBPA, MEHP, 1 μM rosiglitazone
PPARγ [3] = biological target: T1, PPARγ; assay: Transient transactivation assay in HeLa cells, GAL4-hPPARγ; details: 10 μM TBBPA, TCBPA, MEHP

T3 sequence (Q92731 whole entry): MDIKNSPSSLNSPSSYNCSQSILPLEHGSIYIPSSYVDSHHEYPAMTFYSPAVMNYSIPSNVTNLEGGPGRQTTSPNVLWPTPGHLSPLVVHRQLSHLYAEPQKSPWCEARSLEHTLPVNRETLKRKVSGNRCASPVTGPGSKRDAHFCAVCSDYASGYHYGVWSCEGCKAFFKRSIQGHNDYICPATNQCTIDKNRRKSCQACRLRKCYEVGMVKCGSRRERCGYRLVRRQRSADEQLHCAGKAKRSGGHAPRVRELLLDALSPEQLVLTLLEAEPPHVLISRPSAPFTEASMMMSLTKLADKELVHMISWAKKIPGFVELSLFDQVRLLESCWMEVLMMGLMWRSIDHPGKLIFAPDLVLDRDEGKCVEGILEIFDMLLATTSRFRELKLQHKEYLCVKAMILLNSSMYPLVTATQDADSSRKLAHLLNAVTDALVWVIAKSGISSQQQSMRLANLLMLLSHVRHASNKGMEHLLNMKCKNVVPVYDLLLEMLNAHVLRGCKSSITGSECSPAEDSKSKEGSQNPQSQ

Compound	ranking of ability to activate PPARγ (PPARγ [1])	activation of PPARγ (luciferase) (PPARγ [1])	ranking order of estrogenic potency, ERα (ERα)	ranking order of estrogenic potency, ERβ (ERβ)	agonistic activity toward ERα (luciferase) (ERα)	agonistic activity toward ERβ (luciferase) (ERβ)	induction of adipogenesis (Oil Red O staining) (3T3L1 preadipocytes)	other results
3,3´,5-tribromoBPA [triBBPA]	TBBPA = triBBPA > diBBPA >>> monoBBPA	highest potency	monoBBPA > diBBPA > triBBPA	monoBBPA > diBBPA > triBBPA				
3,3´-dibromoBPA [diBBPA]	TBBPA = triBBPA > diBBPA >>> monoBBPA		monoBBPA > diBBPA > triBBPA	monoBBPA > diBBPA > triBBPA	highest transactivation efficiency			ERα versus ERβ selectivity (ERα): slight ERα selectivity
3-MonobromoBPA [monoBBPA]	TBBPA = triBBPA > diBBPA >>> monoBBPA		monoBBPA > diBBPA > triBBPA	monoBBPA > diBBPA > triBBPA	highest transactivation efficiency			ERα versus ERβ selectivity (ERα): slight ERα selectivity
CC(C)(c1ccc(O)cc1)c1ccc(O)cc1 [BPA, bisphenol A]		failed to activate; also recorded: absence of significant interaction			almost full agonistic activity; also recorded: highest transactivation efficiency	almost full agonistic activity		
CC(C)(c1cc(Br)c(O)c(Br)c1)c1cc(Br)c(O)c(Br)c1 [TBBPA, 2,2-bis(3,5-dibromo-4-hydroxyphenyl)propane]				no estrogenic activity at all		little effect	induced adipogenesis	adipogenic action upon co-treatment with PPARγ antagonist CD5477 (3T3L1 preadipocytes; co-treatment with CD5477): inhibited the adipogenic action
CC(C)(c1cc(Cl)c(O)c(Cl)c1)c1cc(Cl)c(O)c(Cl)c1 [TCBPA, 2,2-bis(3,5-dichloro-4-hydroxyphenyl)propane]		partially activating PPARγ				partially activated	induced adipogenesis	AP2 expression level compared with rosiglitazone [2]: much lesser extent; activation of zebrafish PPARγ (transient transfection) (zebrafish PPARγ): activated; activation of human PPARγ (transient transfection) (PPARγ [3]): activators
CN(CCOc1ccc(CC2SC(=O)NC2=O)cc1)c1ccccn1 (centres unmarked) [rosiglitazone, reference compound]							strongly induced adipogenesis	activation of zebrafish PPARγ (transient transfection) (zebrafish PPARγ): completely inactive
